According to ChEMBL document CHEMBL4602617, “Discovery and optimization of heteroaryl piperazines as potent and selective PI3Kδ inhibitors” (Bioorg Med Chem Lett, 2020):
pIC50: −log10 of the molar value.

Tests used:
[1] = Volume of drug distribution in dog at 0.5 mg/kg, iv or 1 mg/kg, po; type: ADME, organism-based, Canis lupus familiaris; details: in vivo
[2] = biological target: Cytochrome P450 3A4 (Homo sapiens, UniProt P08684); assay: Inhibition of CYP3A4 (unknown origin); type: ADME
[3] = biological target: 5-hydroxytryptamine receptor 2C (Homo sapiens) (UniProt P28335); assay: Displacement of [3H]mesulergine from human recombinant 5HT2C receptor expressed in CHOK1 cells at 10 uM incubated for 60 mins by radiometric scintillation assay relative to control; type: cell-based; details: CHO-K1
[4] = biological target: CDK2/Cyclin A2 (Homo sapiens, UniProt P24941); assay: Inhibition of recombinant full length human His-tagged CDK2/Cyclin A expressed in baculovirus expression system using serine/threonine-12 peptide as substrate incubated for 60 mins in presence of ATP by Z'-LYTE assay
[5] = biological target: Serine/threonine-protein kinase MRCK beta (Homo sapiens, UniProt Q9Y5S2); assay: Inhibition of recombinant human His-tagged MRCKB catalytic domain expressed in baculovirus expression system using serine/threonine-13 peptide as substrate incubated for 60 mins in presence of ATP by Z'-LYTE assay
[6] = biological target: Serine/threonine-protein kinase B-raf (Homo sapiens, UniProt P15056, V600E); assay: Inhibition of […] N-terminal GST-tagged human BRAF V599E mutant (416 to 766 residues) expressed in baculovirus expression system using Ser/Thr 03 as substrate after 1 hr in presence of ATP by Z'-LYTE assay
Sequence of Serine/threonine-protein kinase B-raf (P15056 2-766 V600E limits assumed): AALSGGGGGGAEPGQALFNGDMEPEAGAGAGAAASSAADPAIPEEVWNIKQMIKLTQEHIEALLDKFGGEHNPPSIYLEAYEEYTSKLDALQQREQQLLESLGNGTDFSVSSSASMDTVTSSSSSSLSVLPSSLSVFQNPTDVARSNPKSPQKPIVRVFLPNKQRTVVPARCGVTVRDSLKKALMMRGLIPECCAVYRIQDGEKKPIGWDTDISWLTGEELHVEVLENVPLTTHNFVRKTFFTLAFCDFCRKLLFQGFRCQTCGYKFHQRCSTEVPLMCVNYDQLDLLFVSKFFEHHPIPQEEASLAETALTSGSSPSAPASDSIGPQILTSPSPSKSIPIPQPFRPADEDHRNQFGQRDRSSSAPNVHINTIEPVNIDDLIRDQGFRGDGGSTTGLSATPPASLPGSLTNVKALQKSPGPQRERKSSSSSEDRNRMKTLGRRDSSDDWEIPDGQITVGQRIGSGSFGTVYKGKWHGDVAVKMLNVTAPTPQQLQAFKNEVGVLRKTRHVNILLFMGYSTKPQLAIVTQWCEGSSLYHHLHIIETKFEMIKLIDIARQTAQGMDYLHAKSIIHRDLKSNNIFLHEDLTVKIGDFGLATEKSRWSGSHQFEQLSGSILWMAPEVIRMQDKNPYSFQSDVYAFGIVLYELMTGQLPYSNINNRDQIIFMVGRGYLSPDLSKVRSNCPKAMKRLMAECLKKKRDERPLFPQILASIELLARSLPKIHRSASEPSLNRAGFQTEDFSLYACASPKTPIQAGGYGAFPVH

[7] = biological target: RAC-gamma serine/threonine-protein kinase (Homo sapiens, UniProt Q9Y243); assay: Inhibition of recombinant full length human His-tagged AKT3 expressed in baculovirus expression system using Ser/Thr-06 peptide as substrate incubated for 60 mins in presence of ATP by Z'-LYTE assay
Sequence of RAC-gamma serine/threonine-protein kinase (Q9Y243 whole entry): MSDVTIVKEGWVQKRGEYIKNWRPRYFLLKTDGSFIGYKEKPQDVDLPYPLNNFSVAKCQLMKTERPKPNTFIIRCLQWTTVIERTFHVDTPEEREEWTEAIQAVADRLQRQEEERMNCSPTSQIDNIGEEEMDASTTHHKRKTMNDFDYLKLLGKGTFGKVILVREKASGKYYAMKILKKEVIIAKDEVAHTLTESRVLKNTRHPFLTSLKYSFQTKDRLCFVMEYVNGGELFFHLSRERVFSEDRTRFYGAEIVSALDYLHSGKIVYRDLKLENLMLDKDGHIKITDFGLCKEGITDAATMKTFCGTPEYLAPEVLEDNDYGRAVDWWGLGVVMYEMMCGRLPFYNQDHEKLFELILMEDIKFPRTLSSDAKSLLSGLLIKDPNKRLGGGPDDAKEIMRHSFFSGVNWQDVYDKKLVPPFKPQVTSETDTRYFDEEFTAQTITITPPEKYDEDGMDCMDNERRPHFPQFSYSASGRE

[8] = biological target: Glycogen synthase kinase-3 alpha (Homo sapiens, UniProt P49840); assay: Inhibition of recombinant full length GST-tagged human GSK3alpha expressed in baculovirus expression system using Ser/Thr 09 peptide as substrate after 1 hr in presence of ATP by Z'LYTE assay
Sequence of Glycogen synthase kinase-3 alpha (P49840 whole entry): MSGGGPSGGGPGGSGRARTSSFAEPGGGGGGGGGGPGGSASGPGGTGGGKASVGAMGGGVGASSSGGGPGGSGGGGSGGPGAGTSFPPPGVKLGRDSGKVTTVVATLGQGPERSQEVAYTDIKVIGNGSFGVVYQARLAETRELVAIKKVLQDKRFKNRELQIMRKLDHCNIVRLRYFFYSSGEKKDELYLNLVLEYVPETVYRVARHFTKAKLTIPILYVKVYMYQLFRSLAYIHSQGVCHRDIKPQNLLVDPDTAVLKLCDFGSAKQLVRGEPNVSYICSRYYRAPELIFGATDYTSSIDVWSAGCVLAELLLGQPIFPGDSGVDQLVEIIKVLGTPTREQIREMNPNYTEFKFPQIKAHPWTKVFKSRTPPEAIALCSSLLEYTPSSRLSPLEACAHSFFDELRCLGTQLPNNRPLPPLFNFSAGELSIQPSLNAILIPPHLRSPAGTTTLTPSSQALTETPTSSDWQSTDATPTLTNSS

[9] = biological target: Thyrotropin-releasing hormone receptor (Rattus norvegicus) (UniProt Q01717); assay: Inhibition of rat TRH receptor at 10 uM relative to control
[10] = biological target: 5-hydroxytryptamine receptor 3A (Homo sapiens) (UniProt P46098); assay: Displacement of [3H]GR-65630 from full length human recombinant 5HT3 receptor expressed in HEK293 cells at 10 uM measured after 60 mins by radiometric scintillation analysis relative to control; type: cell-based
[11] = biological target: Muscarinic acetylcholine receptor M3 (Homo sapiens) (UniProt P20309); assay: Displacement of [3H]N-Methylscopolamine from full length human recombinant Muscarinic M3 receptor expressed in CHOK1 cells at 10 uM measured after 120 mins by radiometric scintillation analysis relative to control; type: cell-based; details: CHO-K1
[12] = biological target: Glutamate NMDA receptor (Rattus norvegicus) (UniProt P35439+Q00959+Q00960+Q00961+Q62645+Q8VHN2+Q9R1M7); assay: Displacement of [3H]CGP-39653 from glutamate NMDA receptor in Wistar rat cerebral cortical membranes at 10 uM incubated for 20 mins by radiometric scintillation analysis relative to control
[13] = biological target: Alpha-2B adrenergic receptor (Homo sapiens) (UniProt P18089); assay: Displacement of [3H]rauwolscine from full-length recombinant human alpha2B receptor expressed in CHOK1 cells at 10 uM measured after 60 mins by scintillation counting method relative to control; type: cell-based; details: CHO-K1
Sequence of Alpha-2B adrenergic receptor (Homo sapiens) (P18089 whole entry): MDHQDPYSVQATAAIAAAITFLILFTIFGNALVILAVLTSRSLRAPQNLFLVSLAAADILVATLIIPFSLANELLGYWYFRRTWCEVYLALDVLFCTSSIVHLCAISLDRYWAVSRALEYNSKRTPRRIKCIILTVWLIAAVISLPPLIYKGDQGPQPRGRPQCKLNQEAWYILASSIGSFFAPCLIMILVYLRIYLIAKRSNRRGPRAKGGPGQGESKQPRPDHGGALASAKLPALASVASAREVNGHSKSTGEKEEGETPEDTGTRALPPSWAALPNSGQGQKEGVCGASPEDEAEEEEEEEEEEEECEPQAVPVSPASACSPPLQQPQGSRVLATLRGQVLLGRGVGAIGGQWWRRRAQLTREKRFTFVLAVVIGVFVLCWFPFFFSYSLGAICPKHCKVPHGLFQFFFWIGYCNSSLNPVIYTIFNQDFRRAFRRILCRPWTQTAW

[14] = biological target: Phosphodiesterase 3 (Homo sapiens) (UniProt Q14432+Q13370); assay: Inhibition of human platelet PDE3 at 10 uM using cAMP as substrate after 20 mins in presence of [3H]cAMP by radiometric scintillation assay relative to control
[15] = biological target: Mitogen-activated protein kinase 14 (Homo sapiens, UniProt Q16539); assay: Inhibition of recombinant full length human p38alpha expressed in Escherichia coli at 10 uM using MBP as substrate after 30 mins by radiometric scintillation analysis relative to control
Sequence of Mitogen-activated protein kinase 14 (Q16539 whole entry, the tested form may be a part): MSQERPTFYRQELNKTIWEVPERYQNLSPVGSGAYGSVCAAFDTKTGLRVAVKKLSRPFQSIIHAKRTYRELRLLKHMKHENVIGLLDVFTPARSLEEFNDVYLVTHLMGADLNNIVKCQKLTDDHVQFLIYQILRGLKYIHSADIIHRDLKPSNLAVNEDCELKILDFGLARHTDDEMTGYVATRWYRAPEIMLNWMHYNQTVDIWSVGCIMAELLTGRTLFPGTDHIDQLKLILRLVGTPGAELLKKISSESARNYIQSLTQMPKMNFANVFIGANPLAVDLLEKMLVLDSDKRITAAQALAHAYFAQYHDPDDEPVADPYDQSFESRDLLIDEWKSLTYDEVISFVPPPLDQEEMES

[16] = biological target: Receptor tyrosine-protein kinase erbB-2 (Homo sapiens, UniProt P04626); assay: Inhibition of human recombinant ERBB2 (537 to 636 residues) expressed in Escherichia coli using Tyr 06 as substrate after 1 hr in presence of ATP by Z'-LYTE assay
Sequence of Receptor tyrosine-protein kinase erbB-2 (P04626 whole entry, the tested form may be a part): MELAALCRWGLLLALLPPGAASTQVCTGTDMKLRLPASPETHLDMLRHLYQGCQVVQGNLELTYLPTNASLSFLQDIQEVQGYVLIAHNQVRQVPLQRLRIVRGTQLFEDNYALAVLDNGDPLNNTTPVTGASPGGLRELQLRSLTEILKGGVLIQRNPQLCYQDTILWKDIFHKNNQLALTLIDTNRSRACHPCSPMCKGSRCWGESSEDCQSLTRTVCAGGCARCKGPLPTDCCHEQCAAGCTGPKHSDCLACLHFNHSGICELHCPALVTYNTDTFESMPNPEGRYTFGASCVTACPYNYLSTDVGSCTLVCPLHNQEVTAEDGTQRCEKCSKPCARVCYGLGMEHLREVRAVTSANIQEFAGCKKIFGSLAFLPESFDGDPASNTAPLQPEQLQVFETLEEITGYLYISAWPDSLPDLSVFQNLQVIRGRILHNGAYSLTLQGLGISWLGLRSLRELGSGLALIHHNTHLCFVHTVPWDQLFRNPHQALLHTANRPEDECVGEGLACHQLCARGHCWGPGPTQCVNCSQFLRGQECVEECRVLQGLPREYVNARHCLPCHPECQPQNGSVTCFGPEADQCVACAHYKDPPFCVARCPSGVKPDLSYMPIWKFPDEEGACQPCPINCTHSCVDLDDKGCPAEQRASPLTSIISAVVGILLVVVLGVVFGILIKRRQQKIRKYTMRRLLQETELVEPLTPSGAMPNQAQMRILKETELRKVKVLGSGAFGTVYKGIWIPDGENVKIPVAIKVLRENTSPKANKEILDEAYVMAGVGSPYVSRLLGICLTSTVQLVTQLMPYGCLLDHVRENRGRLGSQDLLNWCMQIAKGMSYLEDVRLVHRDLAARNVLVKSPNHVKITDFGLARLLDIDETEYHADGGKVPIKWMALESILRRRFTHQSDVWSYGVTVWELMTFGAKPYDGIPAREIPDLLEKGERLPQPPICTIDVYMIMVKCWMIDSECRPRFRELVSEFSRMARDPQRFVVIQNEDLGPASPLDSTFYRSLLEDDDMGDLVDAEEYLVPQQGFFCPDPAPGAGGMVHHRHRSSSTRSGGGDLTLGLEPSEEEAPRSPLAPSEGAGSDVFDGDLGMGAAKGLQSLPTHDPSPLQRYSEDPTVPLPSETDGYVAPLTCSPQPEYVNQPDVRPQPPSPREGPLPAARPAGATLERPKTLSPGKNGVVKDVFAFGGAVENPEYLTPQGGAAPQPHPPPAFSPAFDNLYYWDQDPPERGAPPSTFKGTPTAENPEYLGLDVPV

[17] = biological target: Fibroblast growth factor receptor 3 (Homo sapiens, UniProt P22607, K650E); assay: Inhibition of recombinant N-terminal His-tagged human FGFR3 K650E mutant (398 to 806 residues) cytoplasmic domain expressed in baculovirus expression system using Tyr 04 peptide as substrate after 1 hr in presence of ATP by Z'-LYTE assay
[18] = biological target: Leukocyte tyrosine kinase receptor (Homo sapiens, UniProt P29376); assay: Inhibition of recombinant human GST-tagged LTK (450 to 864 residues) cytoplasmic domain expressed in baculovirus expression system using tyrosine-6 peptide as substrate incubated for 60 mins in presence of ATP by Z'-LYTE assay
[19] = biological target: Mitogen-activated protein kinase kinase kinase kinase 2 (Homo sapiens, UniProt Q12851); assay: Inhibition of recombinant full length human HIs-tagged MAP4K2 expressed in baculovirus expression system using serine/threonine-7 peptide as substrate incubated for 60 mins in presence of ATP by Z'-LYTE assay
[20] = biological target: Mitogen-activated protein kinase 1 (Homo sapiens, UniProt P28482); assay: Inhibition of recombinant full length human GST-tagged ERK2 expressed in Escherichia coli expression system using serine/threonine-3 peptide as substrate incubated for 60 mins in presence of ATP by Z'-LYTE assay
Sequence of Mitogen-activated protein kinase 1 (P28482 whole entry): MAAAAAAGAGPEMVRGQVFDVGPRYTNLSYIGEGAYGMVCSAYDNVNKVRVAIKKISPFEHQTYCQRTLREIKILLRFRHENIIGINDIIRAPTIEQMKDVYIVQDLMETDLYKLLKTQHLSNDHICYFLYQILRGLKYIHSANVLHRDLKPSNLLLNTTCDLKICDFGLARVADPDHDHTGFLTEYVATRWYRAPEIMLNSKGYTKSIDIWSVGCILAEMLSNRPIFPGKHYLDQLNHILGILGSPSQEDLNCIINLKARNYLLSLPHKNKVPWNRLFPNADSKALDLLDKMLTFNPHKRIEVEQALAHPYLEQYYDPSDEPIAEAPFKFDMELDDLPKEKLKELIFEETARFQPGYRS

[21] = biological target: Myosin light chain kinase 2, skeletal/cardiac muscle (Homo sapiens, UniProt Q9H1R3); assay: Inhibition of recombinant full length human GST-tagged MYLK2 expressed in baculovirus expression system using […] peptide as substrate incubated for 60 mins in presence of ATP by Z'-LYTE assay
[22] = biological target: Serine/threonine-protein kinase PAK 3 (Homo sapiens, UniProt O75914); assay: Inhibition of recombinant full length human His-tagged PAK3 expressed in baculovirus expression system using serine/threonine-20 peptide as substrate incubated for 60 mins in presence of ATP by Z'-LYTE assay
[23] = biological target: PAS domain-containing serine/threonine-protein kinase (Homo sapiens, UniProt Q96RG2); assay: Inhibition of recombinant human GST-tagged PASK catalytic domain expressed in baculovirus expression system using serine/threonine-7 peptide as substrate incubated for 60 mins in presence of ATP by Z'-LYTE assay
[24] = biological target: Serine/threonine-protein kinase D3 (Homo sapiens, UniProt O94806); assay: Inhibition of recombinant full length human GST-tagged PKD3 expressed in baculovirus expression system using serine/threonine-17 peptide as substrate incubated for 60 mins in presence of ATP by Z'-LYTE assay
Sequence of Serine/threonine-protein kinase D3 (O94806 whole entry, the tested form may be a part): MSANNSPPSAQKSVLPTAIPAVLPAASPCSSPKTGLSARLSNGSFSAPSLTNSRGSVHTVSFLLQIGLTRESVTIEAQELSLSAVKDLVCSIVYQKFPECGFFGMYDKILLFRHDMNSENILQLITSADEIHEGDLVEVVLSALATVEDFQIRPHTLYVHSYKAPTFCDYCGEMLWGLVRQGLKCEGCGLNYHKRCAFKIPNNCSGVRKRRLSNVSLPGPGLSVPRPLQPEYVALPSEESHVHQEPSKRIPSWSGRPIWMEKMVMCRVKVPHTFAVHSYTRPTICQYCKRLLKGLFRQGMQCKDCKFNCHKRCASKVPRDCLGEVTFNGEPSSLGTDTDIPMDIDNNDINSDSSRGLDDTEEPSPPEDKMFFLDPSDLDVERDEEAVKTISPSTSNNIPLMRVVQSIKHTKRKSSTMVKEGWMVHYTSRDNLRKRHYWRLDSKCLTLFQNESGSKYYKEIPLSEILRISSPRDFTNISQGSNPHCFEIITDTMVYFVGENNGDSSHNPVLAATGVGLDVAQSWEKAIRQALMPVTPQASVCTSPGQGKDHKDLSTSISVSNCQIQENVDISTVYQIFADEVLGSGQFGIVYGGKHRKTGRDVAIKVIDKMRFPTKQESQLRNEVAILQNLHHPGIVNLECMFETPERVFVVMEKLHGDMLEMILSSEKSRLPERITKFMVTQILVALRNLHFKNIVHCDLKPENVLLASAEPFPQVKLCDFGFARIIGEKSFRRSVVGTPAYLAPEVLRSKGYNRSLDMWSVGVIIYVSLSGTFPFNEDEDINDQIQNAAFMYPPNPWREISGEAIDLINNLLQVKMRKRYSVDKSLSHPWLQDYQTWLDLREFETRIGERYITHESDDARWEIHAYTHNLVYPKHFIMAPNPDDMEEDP

[25] = biological target: Proto-oncogene tyrosine-protein kinase receptor Ret (Homo sapiens, UniProt P07949, V804L); assay: Inhibition of recombinant human GST-tagged RET V804L mutant cytoplasmic domain expressed in baculovirus expression system using tyr02 peptide as substrate incubated for 60 mins in presence of ATP by Z'-LYTE assay

`C[C@@H]1C[C@H]1C(=O)N1CCN(c2cnc(C#N)c(-c3cnn(C)c3)n2)C[C@H]1C` showed a Vd [1] of 1.1 L/kg, a pIC50 [2] of under 4.30 and an inhibition [3] of 13%. For the same compound, the pIC50 [4] was under 4.00, the pIC50 [5] was under 4.00 and the pIC50 [6] was under 4.00. It also gave a pIC50 [7] of under 4.00, a pIC50 [8] of 4.58 and an inhibition [9] of 0%. It also gave an inhibition [10] of 9%, an inhibition [11] of 0% and an inhibition [12] of -1%. It also gave an inhibition [13] of 11%, an inhibition [14] of 21% and an inhibition [15] of 19%. For the same compound, the pIC50 [16] was under 4.00, the pIC50 [17] was under 4.00 and the pIC50 [18] was under 4.00. The pIC50 [19] was under 4.00, the pIC50 [20] was under 4.00 and the pIC50 [21] was under 4.00. For the same compound, the pIC50 [22] was under 4.00, the pIC50 [23] was under 4.00 and the pIC50 [24] was under 4.00. For the same compound, the pIC50 [25] was under 4.00.
